Laboratory results from ChEMBL document CHEMBL4406802, “Human disorders associated with inflammation and the evolving role of natural products to overcome” (Eur J Med Chem, 2019).
In brackets after ≈: the same amount, converted by molar mass.

What was measured:
[1] = tested on: RAW264.7; assay: Antiinflammatory activity in mouse RAW264.7 cells assessed as inhibition of LPS-induced nitric oxide production; assay type: functional, cell-based
[2] = target: T1, Prostaglandin G/H synthase 2 (Homo sapiens, UniProt P35354); assay: Inhibition of COX2 (unknown origin)
T1 sequence (P35354 whole entry): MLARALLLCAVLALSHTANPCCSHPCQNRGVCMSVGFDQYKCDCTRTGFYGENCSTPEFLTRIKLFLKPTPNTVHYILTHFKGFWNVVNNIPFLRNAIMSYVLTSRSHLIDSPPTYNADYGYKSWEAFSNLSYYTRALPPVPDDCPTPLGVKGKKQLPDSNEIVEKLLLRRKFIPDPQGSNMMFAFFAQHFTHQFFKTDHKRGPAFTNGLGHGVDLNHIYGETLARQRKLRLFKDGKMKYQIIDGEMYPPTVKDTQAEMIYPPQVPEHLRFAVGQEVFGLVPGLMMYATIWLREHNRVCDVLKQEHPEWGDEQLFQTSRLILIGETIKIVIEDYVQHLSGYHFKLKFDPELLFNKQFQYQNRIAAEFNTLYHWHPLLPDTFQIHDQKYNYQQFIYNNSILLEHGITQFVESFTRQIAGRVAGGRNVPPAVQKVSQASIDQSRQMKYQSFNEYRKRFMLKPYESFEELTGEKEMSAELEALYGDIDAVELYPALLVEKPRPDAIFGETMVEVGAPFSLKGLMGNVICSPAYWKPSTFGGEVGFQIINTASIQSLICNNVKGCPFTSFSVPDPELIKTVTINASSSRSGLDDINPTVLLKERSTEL

[3] = target: T2, Prostaglandin G/H synthase 2 (Ovis aries, UniProt P79208); assay: Inhibition of recombinant ovine COX2 using arachidonic acid as substrate preincubated for 15 mins followed by arachidonic acid addition measured after 2 mins by ELISA
T2 sequence (P79208 whole entry): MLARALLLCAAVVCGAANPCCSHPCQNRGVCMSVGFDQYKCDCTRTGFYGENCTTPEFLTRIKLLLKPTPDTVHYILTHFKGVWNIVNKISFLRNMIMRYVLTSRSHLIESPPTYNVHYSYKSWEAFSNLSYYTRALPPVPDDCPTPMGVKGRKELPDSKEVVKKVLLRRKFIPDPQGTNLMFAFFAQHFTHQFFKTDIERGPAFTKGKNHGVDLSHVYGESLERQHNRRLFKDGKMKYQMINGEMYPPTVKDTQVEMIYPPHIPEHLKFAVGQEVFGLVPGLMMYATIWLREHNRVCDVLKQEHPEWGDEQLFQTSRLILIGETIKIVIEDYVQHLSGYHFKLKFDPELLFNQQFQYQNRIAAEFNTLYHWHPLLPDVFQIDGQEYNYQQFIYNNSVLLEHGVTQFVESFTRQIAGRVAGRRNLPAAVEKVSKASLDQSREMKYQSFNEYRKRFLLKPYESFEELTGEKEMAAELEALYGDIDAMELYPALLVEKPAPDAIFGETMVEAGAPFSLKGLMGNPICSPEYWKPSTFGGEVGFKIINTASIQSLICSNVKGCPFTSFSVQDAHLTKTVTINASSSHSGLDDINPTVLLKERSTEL

[4] = target: T3, Prostaglandin G/H synthase 2 (Homo sapiens) (UniProt P35354); assay: Inhibition of human COX2 at 10 uM using arachidonic acid as substrate measured for 300 secs intervals from 3 to 10 secs in presence of hematin by fluorescence assay relative to control
T3 sequence (whole entry): T1 sequence (P35354 whole entry)

[5] = tested on: RAW264.7; assay: Antiinflammatory activity in mouse RAW264.7 cells assessed as inhibition of LPS-induced nitric oxide production after 24 hrs by Griess reagent based assay; assay type: functional, cell-based; conditions: RAW264.7, 24 h

CC(C)[C@@H](C)/C=C/[C@@H](C)[C@H]1CC[C@@H]2[C@]1(C)CC[C@H]1[C@]23C=C[C@]2(C[C@@H](O)CC[C@]12C)OO3 [ERGOSTEROL PEROXIDE]
IC50 [1]: 28.7 µM

COOC[C@@]1(C)CC[C@]2(C)CC[C@]3(C)[C@@H]4CCc5cc(O)c(O)cc5[C@]4(C)CC[C@@]3(C)C2C1 (stereo partly specified)
IC50 [2]: 430 µM

CC(C)=CCC/C(C)=C/Cc1c(O)cc2oc(-c3ccc(O)cc3)cc(=O)c2c1O
IC50 [1]: 4.1 µg/mL

O=C(OC[C@@]1(O)CO[C@@H](O[C@H]2[C@H](Oc3ccc(O)c(O)c3)O[C@H](CO)[C@@H](O)[C@@H]2O)[C@@H]1O)c1ccc(O)c(O)c1
IC50 [3]: 24.7 µM

CC[C@H](CC[C@@H](C)[C@H]1CC[C@H]2[C@@H]3C[C@H](O)C4=CC(=O)CC[C@]4(C)[C@H]3CC[C@]12C)C(C)C
IC50 [1]: 86.7 µM

COc1cc(O[C@@H]2O[C@H](CO)[C@@H](O)[C@H](O)[C@H]2O[C@@H]2OC[C@](O)(COC(=O)c3ccc(O)c(O)c3)[C@H]2O)ccc1O
IC50 [3]: 29.2 µM

CC(=O)OC[C@H]1O[C@@H](OCCc2ccc(O)c(O)c2)[C@H](O[C@@H]2OC[C@](O)(CO)[C@H]2O)[C@@H](O[C@@H]2O[C@@H](C)[C@H](O)[C@@H](O)[C@H]2O)[C@@H]1OC(=O)/C=C/c1ccc(O)c(O)c1
IC50 [3]: 16 µM

C=C(C)C(O)Cc1c(-c2ccc(O)cc2O)oc2c(CC=C(C)C)c(O)cc(O)c2c1=O (stereo unspecified)
IC50 [1]: 7.3 µg/mL

CC[C@H](CC[C@@H](C)[C@H]1CC[C@H]2[C@@H]3CCC4=CC(=O)CC[C@]4(C)[C@H]3CC[C@]12C)C(C)C
IC50 [1]: 15.9 µM

C[C@@H]1O[C@@H](O[C@@H]2[C@@H](O[C@@H]3OC[C@](O)(CO)[C@H]3O)[C@H](OCCc3ccc(O)c(O)c3)O[C@H](CO)[C@H]2OC(=O)/C=C/c2ccc(O)c(O)c2)[C@H](O)[C@H](O)[C@H]1O
IC50 [3]: 18.2 µM

C=C(C)C(O)Cc1c(O)cc(O)c2c(=O)c(CC=C(C)C)c(-c3ccc(O)cc3O)oc12 (stereo unspecified)
IC50 [1]: 6.6 µg/mL

CC(C)=CCc1c(-c2ccc(O)cc2O)oc2cc3c(c(O)c2c1=O)CC(C(C)(C)O)O3 (stereo unspecified)
IC50 [1]: 2.2 µg/mL

COc1cc(OC)c(C(=O)/C=C/c2ccc(O)cc2)c(OC)c1
inhibition [4]: 62.2%

C[C@@H]1O[C@@H](O[C@@H]2[C@@H](O)[C@H](OCCc3ccc(O)cc3)O[C@H](CO)[C@H]2OC(=O)/C=C/c2ccc(O)c(O)c2)[C@H](O)[C@H](O[C@@H]2OC[C@](O)(CO)[C@H]2O)[C@H]1O
IC50 [3]: 36 µM

CC(C)=CCC1C(=O)c2c(O)cc3c(c2OC1c1ccc(O)cc1O)C=CC(C)(C)O3 (stereo unspecified)
IC50 [1]: 5.3 µg/mL

CC1(C)C=Cc2c(cc(O)cc2-c2cc3ccc(O)cc3o2)O1
IC50 [5]: 18.5 µg/mL (≈ 60 µM)

COc1cc(OC(C)=O)c2c(c1)O[C@H](OC(C)=O)[C@]1(Cc3cc4c(cc31)COC4)C2=O
inhibition [4]: 89%

CC(=O)OC[C@H]1O[C@@H](OCCc2ccc(O)c(O)c2)[C@H](O)[C@@H](O[C@@H]2O[C@@H](C)[C@H](O)[C@@H](O[C@@H]3OC[C@](O)(CO)[C@H]3O)[C@H]2O)[C@@H]1OC(=O)/C=C/c1ccc(O)c(O)c1
IC50 [3]: 19.6 µM

COc1cc(O)c2c(c1)OCC1(Cc3c1cc(OC)c(OC)c3O)C2=O (stereo unspecified)
inhibition [4]: 101%

C=C(C)[C@H](O)CC/C(C)=C/Cc1c(O)cc2oc(-c3ccc(O)cc3)cc(=O)c2c1O
IC50 [5]: 3.5 µg/mL (≈ 8.28 µM)

COc1cc(/C=C/C(=O)O[C@H]2CC[C@]3(C)[C@H]4CC=C5[C@@H]6CC(C)(C)CC[C@]6(C(=O)O)CC[C@@]5(C)[C@]4(C)CC[C@H]3C2(C)C)ccc1O
IC50 [1]: 54.1 µM

C=C(C)[C@@H]1CC[C@]2(C(=O)O)CC[C@]3(C)[C@H](CC[C@@H]4[C@@]5(C)CC[C@H](O)C(C)(C)[C@@H]5CC[C@]43C)[C@@H]12 [BETULINIC ACID]
IC50 [1]: 42.5 µM

CC(C)=CCc1c(-c2ccc(O)cc2O)oc2cc(O)cc(O)c2c1=O [ALBANIN A]
IC50 [1]: 9.2 µg/mL

Oc1ccc(/C=C/c2cc(O)cc(O)c2)cc1 [RESVERATROL]
IC50 [5]: 24.1 µg/mL (≈ 106 µM)

COc1ccc(CC2COc3cc(O)cc(O)c3C2=O)cc1 (stereo unspecified)
inhibition [4]: 20.9%

CC1=CCc2ccc3cc(-c4cc(O)cc(O)c4)oc3c2OC1
IC50 [5]: 19.8 µg/mL (≈ 64.2 µM)

O=C(/C=C/c1ccc(O)cc1)c1ccc(O)cc1O [ISOLIQUIRITIGENIN]
IC50 [5]: 3.4 µg/mL (≈ 13.3 µM)

O=c1cc(-c2ccc(O)cc2O)oc2cc(O)cc(O)c12 [NORARTOCARPETIN]
IC50 [1]: 6.1 µg/mL

CC(C)=CCc1c(O)ccc(C(=O)[C@H]2[C@@H](c3cc(O)cc4oc(-c5ccc(O)cc5O)cc34)C=C(C)C[C@@H]2c2ccc(O)cc2O)c1O
IC50 [1]: 12.8 µg/mL

COc1cc(O)cc(-c2cc3ccc(O)cc3o2)c1C/C=C(\C)CCC=C(C)C
IC50 [5]: 5.3 µg/mL (≈ 13.5 µM)

CC(C)=CCc1c(O)ccc(C(=O)/C=C/c2ccc(O)c([C@H]3C=C(C)CC(c4ccc(O)cc4O)[C@H]3C(=O)c3ccc(O)cc3O)c2O)c1O (stereo partly specified)
IC50 [5]: 8.5 µg/mL (≈ 12.5 µM)

C[C@@H]1O[C@@H](O[C@@H]2[C@@H](O)[C@H](OCCc3ccc(O)c(O)c3)O[C@H](CO)[C@H]2OC(=O)/C=C/c2ccc(O)c(O)c2)[C@H](O)[C@H](O)[C@H]1O [ACETOSIDE]
IC50 [3]: 11.3 µM

COc1cc(OC)c(C(=O)CCc2ccc(O)cc2)c(OC)c1
inhibition [4]: 54.4%

C=C(C)C(=O)Cc1c(-c2ccc(O)cc2O)oc2c(CC=C(C)C)c(O)cc(O)c2c1=O
IC50 [1]: 4.3 µg/mL

O=C1CC(c2ccc(O)cc2O)Oc2cc(O)ccc21 (stereo unspecified)
IC50 [1]: 10.3 µg/mL

CC[C@H](CC[C@@H](C)[C@H]1CC[C@H]2[C@@H]3CC=C4C[C@@H](O[C@@H]5O[C@H](CO)[C@@H](O)[C@H](O)[C@H]5O)CC[C@]4(C)[C@H]3CC[C@]12C)C(C)C [SITOGLUSIDE]
IC50 [1]: 77.4 µM

CC(=O)OC[C@H]1O[C@@H](OCCc2ccc(O)c(O)c2)[C@H](O)[C@@H](O[C@@H]2O[C@@H](C)[C@H](O)[C@@H](O)[C@H]2O)[C@@H]1OC(=O)/C=C/c1ccc(O)c(O)c1
IC50 [3]: 9.4 µM

O=C(/C=C/c1ccc(O)cc1O)c1ccc(O)cc1O
IC50 [5]: 10.2 µg/mL (≈ 37.5 µM)

O=C1c2c(O)cc(O)cc2OCC1Cc1ccc(O)cc1 (stereo unspecified)
inhibition [4]: 13.3%

COc1cc(O)cc2c1C(=O)C(Cc1ccc(O)cc1)CO2 (stereo unspecified)
inhibition [4]: 73.8%

COc1cc(OC(C)=O)c2c(c1)O[C@H](OC(C)=O)[C@@]1(Cc3cc4c(cc31)COC4)C2=O
inhibition [4]: 20.9%

CC(C)=CCc1c(-c2ccc(O)cc2O)oc2cc3c(c(O)c2c1=O)C=CC(C)(C)O3 [CUDRAFLAVONE B]
IC50 [1]: 7.4 µg/mL

C[C@@H]1O[C@@H](O[C@@H]2[C@@H](O)[C@H](OCCc3ccc(O)c(O)c3)O[C@H](CO)[C@H]2OC(=O)/C=C/c2ccc(O)c(O)c2)[C@H](O)[C@H](O[C@@H]2OC[C@](O)(CO)[C@H]2O)[C@H]1O
IC50 [3]: 21.5 µM

COc1c(-c2ccc(O)c(O)c2)oc2cc(O)cc(O)c2c1=O [3-O-METHYLQUERCETIN]
IC50 [5]: 3.5 µg/mL (≈ 11.1 µM)

CC(C)=CCC1C(=O)c2c(O)cc3c(c2OC1c1ccc(O)cc1O)C=CC(C)(CO)O3 (stereo unspecified)
IC50 [1]: 5.2 µg/mL

COc1ccc(CC2(O)COc3cc(O)cc(O)c3C2=O)cc1 (stereo unspecified)
inhibition [4]: 71.4%

CC(C)=CCc1c(-c2ccc(O)cc2O)oc2c(CC=C(C)C)c(O)cc(O)c2c1=O [KUWANON C]
IC50 [1]: 9.6 µg/mL

CC(C)=CCc1c(O)ccc(C(=O)/C=C/c2ccc(O)cc2)c1O [ISOBAVACHALCONE]
IC50 [1]: 3.5 µg/mL

COc1cc(O)cc(-c2cc3cc(O)c(OC)cc3o2)c1
IC50 [5]: 7.9 µg/mL (≈ 27.6 µM)

COc1cc(O)cc(-c2cc3cc(OC)c(O)cc3o2)c1
IC50 [5]: 7.5 µg/mL (≈ 26.2 µM)

O=C1CC(c2ccc(O)cc2O)Oc2cc(O)cc(O)c21 (stereo unspecified) [STEPPOGENIN]
IC50 [1]: 12.1 µg/mL
